# Experimental data as given in ChEMBL document CHEMBL3785061, “Evaluation of the anti-inflammatory action of curcumin analog (DM1): Effect on iNOS and COX-2 gene expression and autophagy pathways” (Bioorg Med Chem, 2016).
# pIC50: −log10 of the molar value. Active and inactive are the calls of the source. No cut-off for these calls is given here.
# How the values were obtained:
# [1] = test system: Mus musculus; experiment: In vivo inhibition of myeloperoxidase activity in bradykinin-induced Swiss mouse peritonitis model at 1 to 100 mg/kg, ip administered prior to bradykinin challenge for 4hrs; assay type: functional, organism-based
# [2] = test system: Mus musculus; experiment: Antiinflammatory activity in bradykinin-induced peritonitis Swiss mouse model assessed as decrease in total number of cells in pertonial cavity at 3 mg/kg, ip administered for 30 mins prior to bradykinin challenge; assay type: functional
# [3] = test system: Mus musculus; experiment: Antiinflammatory activity against carrageenan-induced paw edema in Swiss mouse at 3 mg/kg, ip measured at 15 to 90 mins administered 30 mins prior to carrageenan-challenge by plethysmometric analysis; assay type: functional
# [4] = test system: Mus musculus; experiment: Antiinflammatory activity against bradykinin-induced paw edema in Swiss mouse at 100 mg/kg, ip measured at 15 to 90 mins administered 30 mins prior to bradikynin-challenge by plethysmometric analysis; assay type: functional
# [5] = test system: Mus musculus; experiment: Antiinflammatory activity against substance-P-induced paw edema in Swiss mouse at 3 mg/kg, ip measured at 15 to 90 mins administered 30 mins prior to substance p-challenge by plethysmometric analysis; assay type: functional
# [6] = test system: Mus musculus; experiment: Antiinflammatory activity in carrageenan-induced Swiss mouse peritonitis model assessed as decrease in total number of cells in pertonial cavity at 3 mg/kg, ip administered for 4 hrs prior to carrageenan challenge; assay type: functional; design: scale not given: the % may be the effect or the level left
# [7] = test system: Mus musculus; experiment: In vivo inhibition of myeloperoxidase activity in carrageenan-induced Swiss mouse peritonitis model at 1 to 100 mg/kg, ip administered prior to carrageenan challenge for 4hrs; assay type: functional, organism-based
# [8] = test system: Mus musculus; experiment: Antiinflammatory activity in substance p-induced Swiss mouse peritonitis model assessed as decrease in total number of cells in pertonial cavity at 3 mg/kg, ip administered for 30 mins prior to substance-P challenge; assay type: functional
# [9] = test system: RAW264.7; experiment: Inhibition of COX2 expression in LPS-stimulated mouse RAW264.7 cells at 12.5 to 50 ug/ml preincubated with the compound followed by LPS stimulation for 24 hrs by Real-Time PCR; assay type: functional, cell-based
# [10] = test system: RAW264.7; experiment: Cytotoxicity against mouse RAW264.7 cells assessed as cell viability at 100 ug/ml after 24 hrs by MTT assay; assay type: cell-based; details: raw264.7, 24 h
# [11] = test system: RAW264.7; experiment: Inhibition of iNOS expression in LPS-stimulated mouse RAW264.7 cells at 12.5 to 50 ug/ml preincubated with the compound followed by LPS stimulation for 24 hrs by Real-Time PCR; assay type: functional, cell-based
# [12] = test system: A-375; experiment: Induction of autophagy in human A375 cells assessed as increase in LC3-2 complex concentration at 65 uM after 1 hr by Western blot analysis; assay type: functional, cell-based
# [13] = test system: A-375; experiment: Induction of autophagy in human A375 cells assessed as increase in LC3-2 complex concentration at 65 uM after 6 hrs by Western blot analysis; assay type: functional, cell-based
# [14] = test system: Mus musculus; experiment: Antiinflammatory activity in carrageenan-induced Swiss mouse peritonitis model assessed as effect on total number of cells in peritonial cavity at 1 to 10 mg/kg, ip administered 30 mins prior to carrageenan challenge; assay type: functional, organism-based
# [15] = test system: Mus musculus; experiment: Antiinflammatory activity against carrageenan-induced paw edema in Swiss mouse at 10 mg/kg, ip measured at 15 to 90 mins administered 30 mins prior to carrageenan-challenge by plethysmometric analysis; assay type: functional
# [16] = test system: Mus musculus; experiment: Antiinflammatory activity against carrageenan-induced paw edema in Swiss mouse at 100 mg/kg, ip measured at 15 to 90 mins administered 30 mins prior to carrageenan-challenge by plethysmometric analysis; assay type: functional
# [17] = test system: Mus musculus; experiment: Antiinflammatory activity against bradykinin-induced paw edema in Swiss mouse at 10 mg/kg, ip measured at 15 to 90 mins administered 30 mins prior to bradikynin-challenge by plethysmometric analysis; assay type: functional
# [18] = test system: Mus musculus; experiment: Antiinflammatory activity against bradykinin-induced paw edema in Swiss mouse at 3 mg/kg, ip measured at 15 to 90 mins administered 30 mins prior to bradikynin-challenge by plethysmometric analysis; assay type: functional
# [19] = test system: Mus musculus; experiment: Antiinflammatory activity against substance-P-induced paw edema in Swiss mouse at 10 mg/kg, ip measured at 15 to 90 mins administered 30 mins prior to substance p-challenge by plethysmometric analysis; assay type: functional
# [20] = test system: Mus musculus; experiment: Antiinflammatory activity against substance-P-induced paw edema in Swiss mouse at 100 mg/kg, ip measured at 15 to 90 mins administered 30 mins prior to substance p-challenge by plethysmometric analysis; assay type: functional
# [21] = test system: Mus musculus; experiment: Antiinflammatory activity in carrageenan-induced Swiss mouse peritonitis model assessed as decrease in total number of cells in pertonial cavity at 100 mg/kg, ip administered 30 mins prior to carrageenan challenge; assay type: functional; design: scale not given: the % may be the effect or the level left
# [22] = test system: Mus musculus; experiment: Antiinflammatory activity in bradykinin-induced Swiss mouse peritonitis model assessed as decrease in total number of cells in pertonial cavity at 1 mg/kg, ip administered for 30 mins prior to bradykinin challenge; assay type: functional, organism-based
# [23] = test system: Mus musculus; experiment: Antiinflammatory activity in bradykinin-induced peritonitis Swiss mouse model assessed as decrease in total number of cells in pertonial cavity at 10 mg/kg, ip administered for 30 mins prior to bradykinin challenge; assay type: functional
# [24] = test system: Mus musculus; experiment: Antiinflammatory activity in bradykinin-induced peritonitis Swiss mouse model assessed as decrease in total number of cells in pertonial cavity at 100 mg/kg, ip administered for 30 mins prior to bradykinin challenge; assay type: functional
# [25] = test system: Mus musculus; experiment: Antiinflammatory activity in bradykinin-induced peritonitis ip dosed Swiss mouse model assessed as decrease in total number of cells in pertonial cavity administered for 4 hrs prior to bradykinin challenge; assay type: functional
# [26] = test system: Mus musculus; experiment: Antiinflammatory activity in substance p-induced Swiss mouse peritonitis model assessed as decrease in total number of cells in pertonial cavity at 1 to 10 mg/kg, ip administered for 30 mins prior to substance-P challenge; assay type: functional, organism-based
# [27] = test system: Mus musculus; experiment: Antiinflammatory activity in substance p-induced Swiss mouse peritonitis model assessed as decrease in total number of cells in pertonial cavity at 100 mg/kg, ip administered for 30 mins prior to substance-P challenge; assay type: functional
# [28] = test system: RAW264.7; experiment: Inhibition of LPS-induced nitric oxide production in mouse RAW264.7 cells preincubated for 1 hr followed by LPS stimulation by Greiss assay; assay type: functional, cell-based
smiles,measurement,setting,value
CC(=O)OCC(=O)[C@@]12N=C(C)O[C@@H]1C[C@H]1[C@@H]3CCC4=CC(=O)C=C[C@]4(C)[C@H]3[C@@H](O)C[C@@]12C [DEFLAZACORT],inhibition,[1],Active
same,inhibition in vivo at 3 mg/kg,[2],46.2%
same,inhibition in vivo at 3 mg/kg,[3],29.2%
same,inhibition in vivo at 100 mg/kg,[4],30.1%
same,inhibition in vivo at 3 mg/kg,[5],32.8%
same,Activity,[6],57.1%
same,inhibition,[7],Active
same,inhibition in vivo at 3 mg/kg,[8],53.3%
COc1cc(/C=C/C(=O)/C=C/c2ccc(O)c(OC)c2)ccc1[O-].[Na+],inhibition,[9],Active
same,Activity,[10],Non-toxic
same,inhibition,[11],Active
same,Activity,[12],Active
same,Activity,[13],inactive
same,Activity,[14],inactive
same,inhibition,[1],Active
same,inhibition in vivo at 10 mg/kg,[15],17.2%
same,inhibition in vivo at 100 mg/kg,[16],18.9%
same,inhibition in vivo at 10 mg/kg,[17],30.8%
same,inhibition in vivo at 3 mg/kg,[18],39.2%
same,inhibition in vivo at 10 mg/kg,[19],15.4%
same,inhibition in vivo at 100 mg/kg,[20],31.5%
same,Activity,[21],38.4%
same,Activity,[22],inactive
same,inhibition in vivo at 10 mg/kg,[23],65.4%
same,inhibition in vivo at 100 mg/kg,[24],78.8%
same,ED50,[25],7.6 mg/kg
same,inhibition,[7],Active
same,Activity,[26],inactive
same,inhibition in vivo at 100 mg/kg,[27],40%
same,pIC50,[28],5.11
